Measured values reported in patent US20240294508A1, “RIP1 MODULATORS INCLUDING AZETIDINE CYCLIC UREAS, PREPARATIONS, AND USES THEREOF” (SIRONAX LTD., priority 2021, published 2024).

The compounds below were run on HT-29 cells (assay: HT29 cells 0FBS assay in vitro: TNF-α/SMAC mimetic/zVAD-FMK induced necroptosis, CellTiter-Glo cell viability (RIP1 inhibitory activity)). Settings: Homo sapiens, FBS free medium, TNF-α (10 ng/ml) + SMAC mimetic (6 uM) + zVAD-FMK (10 μM), 20 hours, geometric mean EC50.
Type: cell-based
Excerpt: Protocol for HT29 Cells 0FBS Assay In Vitro
• Cell line: HT-29 (ATCC® HTB-38™) • Culture medium: McCOY's 5A, Gibco, Cat No. 16600-082 • FBS, Gibco, Cat No. 10099-141C • Trypsin: Gibco, Cat No. 25200-056 • DMSO: Sigma, Cat No. 67-68-5, 1L • Assay plate: Corning #3903 • Compound dilution plate: Corning #3357 • Inducers: TNFα, GenScript, Cat No. Z01001-50, • SmacM, Cat. No., HY-15989, MedChemExpress (MCE) • Z_VAD FMK, TargetMol, T6013 • Cell Titer-Glo® Luminescent Cell Viability Assay Kit: Promega, Cat No. G7573 • EnVision: PerkinElmer, 2105-0010
2. Cell Seeding of HT-29 Cells
1) HT-29 cells were checked every day to make sure they are healthy and growing as expected. They were split sub-culturing when were approximately 80% confluent.
2) First pre-warm the culture medium of McCOY's 5A medium (Gibco, Cat No. 16600-082) with 10% FBS (Gibco, Cat No. 10099-141C) in 37° C. water bath for at least 30 min.
3) Growing cells to desired level of confluency 80% in a T75 flask, aspirate the medium, and wash with warm PBS two times.
4) Add 2-3 ml fresh warm trypsin (Gibco, Cat No. 25200-056) solution. Transfer the flask to a 37° C. incubator.
5) After 5 minutes, tap the side of the flask, and examine the flask under a microscope for lifting. If necessary, return the cells to the incubator for an additional 5-10 minutes, with occasional tapping, until lifting is complete.
6) Quickly neutralize the trypsin reaction by adding 6-9 ml cell culture medium, then transfer the cells to sterile 15 ml conical tubes. Pellet the cells by centrifugation at 300×g for 7 minutes, then decant the supernatant.
7) Resuspend the cells in fresh cell culture medium. Do cell counting with hemocytometer.
8) Seed 100 μl of 5,000 cells into each well of the sterile 96-well cell culture plate (Corning 3903) and culture overnight at 37° C. with 5% CO2.
3. Compounds Titration and Treatment of HT-29 Cells
1) All batches of compounds (CPDs0 (e.g., compound 1-169) were dissolved in DMSO (Dimethyl sulfoxide) as 20 mM stock solution.
2) Take 3 ul 20 mM stock solution of CPDs to […] DMSO and mix well, continue the titration ratio of 1:3 (20 ul CPDs+40 ul DMSO), e.g., to give solutions of CPDS at 6.6 mM, 2.2 mM, etc., till the 10 points end.
3) Take out assay plates with HT-29 cells from incubator, remove all culture medium then wash 1 time with 1×PBS, and change fresh McCOY's 5A medium of FBS free with a cocktail of TNF-α (10 ng/ml), the SMAC mimetic (6 uM) and zVAD-FMK (10 μM) to stimulate the HT-29 cells to increase pRIPK1 levels and necroptosis.
4) Add 0.5 μL of the diluted compound to the corresponding 96-well assay plates.
5) Incubate the assay plates for 20 hours at 37° C. with 5% CO2.
4. Performing Cell Viability Detection of HT-29 Cells after Treated with Compounds
1) The CellTiter-Glo® Luminescent Cell Viability Assay was employed to detect the ATP levels of viable HT-29 cells.
2) Equilibrate the CellTiter-Glo® buffer and the lyophilized substrate to room temperature prior to use.
3) Resuspend the CellTiter-Glo® substrate with CellTiter-Glo® buffer, mix by gently vortexing to obtain a homogeneous solution.
4) Pipette 20 μl the enzyme/substrate mixture by multi-channel pipette into the 96-well assay plates from step 5) under the Compounds titration and treatment stage.
5) Place the plates on an orbital shaker and mix the contents for 3 minutes to induce cell lysis.
6) Then allow the plates to incubate at room temperature for 10 minutes to stabilize luminescent signal.
7) Read and record luminescence signal with EnVision.
8) The geometric mean EC50 of the compounds were calculated from 10 points response dose with duplicate. In Table 2, activity is provided as follows: +++=0.1 nM≤EC50<100 nM; ++=100 nM≤EC5 1000 nM; […].

Cc1nsc(C)c1-c1cc(OC2CN(C(=O)N3N=CC[C@H]3c3cc(F)cc(C#N)c3)C2)c(F)cn1 [Compound 31, (S)-3-(1-(3-((2-(3,5-dimethylisothiazol-4-yl)-5-fluoropyridin-4-yl)oxy)azetidine-1-carbonyl)-4,5-dihydro-1H-pyrazol-5-yl)-5-fluorobenzonitrile] and Cc1nn(C)c(C)c1-c1cc(OC2CN(C(=O)N3N=CC[C@H]3c3cc(F)cc(C#N)c3)C2)c(F)cn1 [Compound 47, (S)-3-fluoro-5-(1-(3-((5-fluoro-2-(1,3,5-trimethyl-1H-pyrazol-4-yl)pyridin-4-yl)oxy)azetidine-1-carbonyl)-4,5-dihydro-1H-pyrazol-5-yl)benzonitrile] fall in the same range of EC50: 0.1 to 100 nM for the first, 0.1 to 100 nM for the second.

Cn1ncc(Cl)c1-c1ncc(F)c(OC2CN(C(=O)N3N=CC[C@H]3c3cncc(F)c3)C2)n1 [Compound 32, (S)-(3-((2-(4-chloro-1-methyl-1H-pyrazol-5-yl)-5-fluoropyrimidin-4-yl)oxy)azetidin-1-yl)(5-(5-fluoropyridin-3-yl)-4,5-dihydro-1H-pyrazol-1-yl)methanone] and Cn1ncc(Cl)c1-c1cc(OC2CN(C(=O)N3N=CC[C@H]3c3cncc(F)c3)C2)c(F)cn1 [Compound 43, (S)-(3-((2-(4-chloro-1-methyl-1H-pyrazol-5-yl)-5-fluoropyridin-4-yl)oxy)azetidin-1-yl)(5-(5-fluoropyridin-3-yl)-4,5-dihydro-1H-pyrazol-1-yl) methanone] fall in the same range of EC50: 0.1 to 100 nM for the first, 0.1 to 100 nM for the second.

Cc1cnn(C)c1-c1ncc(F)c(OC2CN(C(=O)N3N=CC[C@H]3c3cncc(C#N)c3)C2)n1 [Compound 33, (S)-5-(1-(3-((2-(1,4-dimethyl-1H-pyrazol-5-yl)-5-fluoropyrimidin-4-yl)oxy)azetidine-1-carbonyl)-4,5-dihydro-1H-pyrazol-5-yl)nicotinonitrile] and Cc1cnn(C)c1-c1cc(OC2CN(C(=O)N3N=CC[C@H]3c3cncc(C#N)c3)C2)c(F)cn1 [Compound 42, (S)-5-(1-(3-((2-(1,4-dimethyl-1H-pyrazol-5-yl)-5-fluoropyridin-4-yl)oxy)azetidine-1-carbonyl)-4,5-dihydro-1H-pyrazol-5-yl)nicotinonitrile] fall in the same range of EC50: 0.1 to 100 nM for the first, 0.1 to 100 nM for the second.

Cn1ncc(C#N)c1-c1ccc(F)c(OC2CN(C(=O)N3N=CC[C@H]3c3cncc(F)c3)C2)n1 [Compound 34, (S)-5-(5-fluoro-6-((1-(5-(5-fluoropyridin-3-yl)-4,5-dihydro-1H-pyrazole-1-carbonyl)azetidin-3-yl)oxy)pyridin-2-yl)-1-methyl-1H-pyrazole-4-carbonitrile] and Cn1ncc(C#N)c1-c1ccc(F)c(OC2CN(C(=O)N3N=CC[C@H]3c3cncc(C#N)c3)C2)n1 [Compound 41, (S)-5-(1-(3-((6-(4-cyano-1-methyl-1H-pyrazol-5-yl)-3-fluoropyridin-2-yl)oxy)azetidine-1-carbonyl)-4,5-dihydro-1H-pyrazol-5-yl)nicotinonitrile] fall in the same range of EC50: 0.1 to 100 nM for the first, 0.1 to 100 nM for the second.

Cn1nc(N)cc1-c1cc(OC2CN(C(=O)N3N=CC[C@H]3c3cc(F)cc(C#N)c3)C2)c(F)cn1 [Compound 35, (S)-3-(1-(3-((2-(3-amino-1-methyl-1H-pyrazol-5-yl)-5-fluoropyridin-4-yl)oxy)azetidine-1-carbonyl)-4,5-dihydro-1H-pyrazol-5-yl)-5-fluorobenzonitrile] and Cc1c(N)nn(C)c1-c1cc(OC2CN(C(=O)N3N=CC[C@H]3c3cc(F)cc(C#N)c3)C2)c(F)cn1 [Compound 49, (S)-3-(1-(3-((2-(3-amino-1,4-dimethyl-1H-pyrazol-5-yl)-5-fluoropyridin-4-yl)oxy)azetidine-1-carbonyl)-4,5-dihydro-1H-pyrazol-5-yl)-5-fluoro benzonitrile] fall in the same range of EC50: 0.1 to 100 nM for the first, 0.1 to 100 nM for the second.

First: Cn1ccnc1-c1cc(OC2CN(C(=O)N3N=CC[C@H]3c3cc(F)cc(C#N)c3)C2)c(F)cn1 [Compound 36, (S)-3-fluoro-5-(1-(3-((5-fluoro-2-(1-methyl-1H-imidazol-2-yl)pyridin-4-yl)oxy)azetidine-1-carbonyl)-4,5-dihydro-1H-pyrazol-5-yl)benzonitrile]
Second: Cn1ccnc1-c1cc(OC2CN(C(=O)N3N=CC[C@H]3c3cncc(C#N)c3)C2)c(F)cn1 [Compound 38, (S)-5-(1-(3-((5-fluoro-2-(1-methyl-1H-imidazol-2-yl)pyridin-4-yl)oxy)azetidine-1-carbonyl)-4,5-dihydro-1H-pyrazol-5-yl)nicotinonitrile]
The EC50 of the first is lower: 0.1 to 100 nM for the first, 100 to 1000 nM for the second.

Cn1ccnc1-c1cc(OC2CN(C(=O)N3N=CC[C@H]3c3cncc(F)c3)C2)c(F)cn1 [Compound 37, (S)-(3-((5-fluoro-2-(1-methyl-1H-imidazol-2-yl)pyridin-4-yl)oxy)azetidin-1-yl)(5-(5-fluoropyridin-3-yl)-4,5-dihydro-1H-pyrazol-1-yl)methanone] and Cn1ncc(F)c1-c1cc(OC2CN(C(=O)N3N=CC[C@H]3c3cncc(F)c3)C2)c(F)cn1 [Compound 45, (S)-(3-((5-fluoro-2-(4-fluoro-1-methyl-1H-pyrazol-5-yl)pyridin-4-yl)oxy)azetidin-1-yl)(5-(5-fluoropyridin-3-yl)-4,5-dihydro-1H-pyrazol-1-yl) methanone] fall in the same range of EC50: 0.1 to 100 nM for the first, 0.1 to 100 nM for the second.

Cc1ccc(C)n1-c1cc(OC2CN(C(=O)N3N=CC[C@H]3c3cc(F)cc(C#N)c3)C2)c(F)cn1 [Compound 39, (S)-3-(1-(3-((2-(2,5-dimethyl-1H-pyrrol-1-yl)-5-fluoropyridin-4-yl)oxy)azetidine-1-carbonyl)-4,5-dihydro-1H-pyrazol-5-yl)-5-fluorobenzonitrile] and Cc1c(Cl)nn(C)c1-c1cc(OC2CN(C(=O)N3N=CC[C@H]3c3cc(F)cc(C#N)c3)C2)c(F)cn1 [Compound 50, (S)-3-(1-(3-((2-(3-chloro-1,4-dimethyl-1H-pyrazol-5-yl)-5-fluoropyridin-4-yl)oxy)azetidine-1-carbonyl)-4,5-dihydro-1H-pyrazol-5-yl)-5-fluoro benzonitrile] fall in the same range of EC50: 0.1 to 100 nM for the first, 0.1 to 100 nM for the second.

Cn1ncc(C#N)c1-c1ccc(F)c(OC2CN(C(=O)N3N=CC[C@H]3c3cc(F)cc(C#N)c3)C2)n1 [Compound 40, (S)-5-(6-((1-(5-(3-cyano-5-fluorophenyl)-4,5-dihydro-1H-pyrazole-1-carbonyl)azetidin-3-yl)oxy)-5-fluoropyridin-2-yl)-1-methyl-1H-pyrazole-4-carbonitrile] and Cn1ncc(F)c1-c1cc(OC2CN(C(=O)N3N=CC[C@H]3c3cncc(C#N)c3)C2)c(F)cn1 [Compound 46, (S)-5-(1-(3-((5-fluoro-2-(4-fluoro-1-methyl-1H-pyrazol-5-yl)pyridin-4-yl)oxy)azetidine-1-carbonyl)-4,5-dihydro-1H-pyrazol-5-yl)nicotinonitrile] fall in the same range of EC50: 0.1 to 100 nM for the first, 0.1 to 100 nM for the second.

Cn1ncc(Cl)c1-c1cc(OC2CN(C(=O)N3N=CC[C@H]3c3cncc(C#N)c3)C2)c(F)cn1 [Compound 44] and CCS(=O)(=O)c1c(C)nn(-c2cc(OC3CN(C(=O)N4N=CC[C@H]4c4cc(F)cc(C#N)c4)C3)c(F)cn2)c1C [Compound 48, (S)-3-(1-(3-((2-(4-(ethylsulfonyl)-3,5-dimethyl-1H-pyrazol-1-yl)-5-fluoropyridin-4-yl)oxy)azetidine-1-carbonyl)-4,5-dihydro-1H-pyrazol-5-yl)-5-fluorobenzonitrile] fall in the same range of EC50: 0.1 to 100 nM for the first, 0.1 to 100 nM for the second.
